{"source": "PubChem BioAssay (NCI)", "experiment_in_all_cases": "NCI anticancer screen, dose series, 48 h", "key": {"DU-145 prostate": {"system": "DU-145 prostate"}, "NCI-H226 lung": {"system": "NCI-H226 lung"}, "ACHN renal": {"system": "ACHN renal"}, "CCRF-CEM leukemia": {"system": "CCRF-CEM leukemia"}, "M14 melanoma": {"system": "M14 melanoma"}, "OVCAR-3 ovarian": {"system": "OVCAR-3 ovarian"}, "UO-31 renal": {"system": "UO-31 renal"}, "A549 NSCLC": {"system": "A549 NSCLC"}, "RXF 393 renal": {"system": "RXF 393 renal"}, "SK-MEL-5 melanoma": {"system": "SK-MEL-5 melanoma"}, "UACC-62 melanoma": {"system": "UACC-62 melanoma"}, "HCC-2998 colon": {"system": "HCC-2998 colon"}, "HOP-62 NSCLC": {"system": "HOP-62 NSCLC"}, "CAKI-1 renal": {"system": "CAKI-1 renal"}, "OVCAR-4 ovarian": {"system": "OVCAR-4 ovarian"}, "EKVX NSCLC": {"system": "EKVX NSCLC"}, "KM12 colon": {"system": "KM12 colon"}, "HS 578T breast": {"system": "HS 578T breast"}, "SF-268 CNS": {"system": "SF-268 CNS"}, "MCF7 breast": {"system": "MCF7 breast"}, "NCI/ADR-RES ovarian": {"system": "NCI/ADR-RES ovarian"}, "MDA-MB-231 breast": {"system": "MDA-MB-231 breast"}, "HCT-15 colon": {"system": "HCT-15 colon"}, "MOLT-4 leukemia": {"system": "MOLT-4 leukemia"}, "OVCAR-5 ovarian": {"system": "OVCAR-5 ovarian"}, "K-562 leukemia": {"system": "K-562 leukemia"}, "MALME-3M melanoma": {"system": "MALME-3M melanoma"}, "OVCAR-8 ovarian": {"system": "OVCAR-8 ovarian"}, "HL-60(TB) leukemia": {"system": "HL-60(TB) leukemia"}}, "note": "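Compound exposure: 48 hours, 5 concentrations, 96-well plates. GI50: concentration for 50% inhibition of growth. TGI denotes the concentration required for complete inhibition of growth.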"}
{"smiles": "CN1CCN(Cc2ccc(NC(=O)c3cncc(C#Cc4cnc5[nH]ncc5c4)c3)cc2C(F)(F)F)CC1", "values": [{"measurement": "GI50", "setting": "DU-145 prostate", "value": 1.54, "unit": "µM"}, {"measurement": "TGI", "setting": "DU-145 prostate", "value": 16.4, "unit": "µM"}, {"measurement": "GI50", "setting": "NCI-H226 lung", "value": 0.704, "unit": "µM"}, {"measurement": "TGI", "setting": "NCI-H226 lung", "value": 9.53, "unit": "µM"}, {"measurement": "GI50", "setting": "ACHN renal", "value": 0.888, "unit": "µM"}, {"measurement": "TGI", "setting": "ACHN renal", "value": 10.8, "unit": "µM"}, {"measurement": "GI50", "setting": "CCRF-CEM leukemia", "value": 3.64, "unit": "µM"}, {"measurement": "TGI", "setting": "CCRF-CEM leukemia", "value": 66.6, "unit": "µM"}, {"measurement": "GI50", "setting": "M14 melanoma", "value": 0.524, "unit": "µM"}, {"measurement": "TGI", "setting": "M14 melanoma", "value": 6.6, "unit": "µM"}, {"measurement": "GI50", "setting": "OVCAR-3 ovarian", "value": 3.04, "unit": "µM"}, {"measurement": "TGI", "setting": "OVCAR-3 ovarian", "value": 16.5, "unit": "µM"}, {"measurement": "GI50", "setting": "UO-31 renal", "value": 3.23, "unit": "µM"}, {"measurement": "TGI", "setting": "UO-31 renal", "value": 10.8, "unit": "µM"}, {"measurement": "GI50", "setting": "A549 NSCLC", "value": 4.31, "unit": "µM"}, {"measurement": "TGI", "setting": "A549 NSCLC", "value": 39.5, "unit": "µM"}, {"measurement": "GI50", "setting": "RXF 393 renal", "value": 0.612, "unit": "µM"}, {"measurement": "TGI", "setting": "RXF 393 renal", "value": 5.68, "unit": "µM"}, {"measurement": "GI50", "setting": "SK-MEL-5 melanoma", "value": 2.71, "unit": "µM"}, {"measurement": "TGI", "setting": "SK-MEL-5 melanoma", "value": 12.6, "unit": "µM"}, {"measurement": "GI50", "setting": "UACC-62 melanoma", "value": 1.09, "unit": "µM"}, {"measurement": "TGI", "setting": "UACC-62 melanoma", "value": 5.56, "unit": "µM"}, {"measurement": "GI50", "setting": "HCC-2998 colon", "value": 4.51, "unit": "µM"}, {"measurement": "TGI", "setting": "HCC-2998 colon", "value": 18.6, "unit": "µM"}, {"measurement": "GI50", "setting": "HOP-62 NSCLC", "value": 4.06, "unit": "µM"}, {"measurement": "TGI", "setting": "HOP-62 NSCLC", "value": 16.6, "unit": "µM"}, {"measurement": "GI50", "setting": "CAKI-1 renal", "value": 0.52, "unit": "µM"}, {"measurement": "TGI", "setting": "CAKI-1 renal", "value": 10.9, "unit": "µM"}, {"measurement": "GI50", "setting": "OVCAR-4 ovarian", "value": 3.03, "unit": "µM"}, {"measurement": "TGI", "setting": "OVCAR-4 ovarian", "value": 25.8, "unit": "µM"}, {"measurement": "GI50", "setting": "EKVX NSCLC", "value": 2.72, "unit": "µM"}, {"measurement": "TGI", "setting": "EKVX NSCLC", "value": 18, "unit": "µM"}, {"measurement": "GI50", "setting": "KM12 colon", "value": 0.107, "unit": "µM"}, {"measurement": "TGI", "setting": "KM12 colon", "value": 12.1, "unit": "µM"}, {"measurement": "GI50", "setting": "HS 578T breast", "value": 1.27, "unit": "µM"}, {"measurement": "TGI", "setting": "HS 578T breast", "value": 13.9, "unit": "µM"}, {"measurement": "GI50", "setting": "SF-268 CNS", "value": 2.54, "unit": "µM"}, {"measurement": "TGI", "setting": "SF-268 CNS", "value": 16.8, "unit": "µM"}, {"measurement": "GI50", "setting": "MCF7 breast", "value": 3.9, "unit": "µM"}, {"measurement": "TGI", "setting": "MCF7 breast", "value": 18.5, "unit": "µM"}, {"measurement": "GI50", "setting": "NCI/ADR-RES ovarian", "value": 7.07, "unit": "µM"}, {"measurement": "TGI", "setting": "NCI/ADR-RES ovarian", "value": 42.1, "unit": "µM"}, {"measurement": "GI50", "setting": "MDA-MB-231 breast", "value": 1.11, "unit": "µM"}, {"measurement": "TGI", "setting": "MDA-MB-231 breast", "value": 6.55, "unit": "µM"}, {"measurement": "GI50", "setting": "HCT-15 colon", "value": 2.97, "unit": "µM"}, {"measurement": "TGI", "setting": "HCT-15 colon", "value": 13.6, "unit": "µM"}, {"measurement": "GI50", "setting": "MOLT-4 leukemia", "value": 1.81, "unit": "µM"}, {"measurement": "TGI", "setting": "MOLT-4 leukemia", "value": 22.4, "unit": "µM"}, {"measurement": "GI50", "setting": "OVCAR-5 ovarian", "value": 3.24, "unit": "µM"}, {"measurement": "TGI", "setting": "OVCAR-5 ovarian", "value": 17.4, "unit": "µM"}, {"measurement": "TGI", "setting": "K-562 leukemia", "value": "> 100", "unit": "µM"}, {"measurement": "GI50", "setting": "MALME-3M melanoma", "value": 0.422, "unit": "µM"}, {"measurement": "TGI", "setting": "MALME-3M melanoma", "value": 2.81, "unit": "µM"}, {"measurement": "GI50", "setting": "OVCAR-8 ovarian", "value": 4.26, "unit": "µM"}, {"measurement": "TGI", "setting": "OVCAR-8 ovarian", "value": 20.3, "unit": "µM"}, {"measurement": "GI50", "setting": "HL-60(TB) leukemia", "value": 0.695, "unit": "µM"}, {"measurement": "TGI", "setting": "HL-60(TB) leukemia", "value": 13.2, "unit": "µM"}]}
